A short description of data set [1]: Critical micelle concentration in propylene glycol caprylate (Capryol 90). The conditions noted are these: in propylene glycol caprylate (e.g., Capryol 90). The data set is classed as physicochemical. The procedure: Such high doses are generally unachievable with active pharmaceutical ingredients in the lipid like liquid fill solvent systems. […] The critical micelle concentration for GDC-0068 in propylene glycol caprylate (e.g., Capryol 90™) was determined to be 0.945 g/g.

For data set [2] the following is noted: forms isolated in Example 14 of U.S. Pat. No. 8,063,050; cited from earlier work.
A short description of data set [3]: Solubility in solvents, antisolvents and liquid fill solvents. It is filed as physicochemical. The conditions noted are these: organic solvent or mixture.
Source text: In one example, antisolvents include pentane, hexane, cyclohexane, heptane, ethyl acetate, iso-propyl acetate, methyl t-butyl ether (MTBE) and methyl iso-butyl ketone.
In one example, solvents include water, alcohols such as methanol, ethanol, isopropanol, 2-butanol, t-butanol and 2-methoxy ethanol, polar ethers such as tetrahydrofuran and 2-methyltetrahydrofuran, toluene, chloroform, dichloromethane, 1,2-dichloroethane and acetone.
Data set [4] is described as follows: XRPD after exposure to water vapor (relative humidity). The conditions noted are these: room temperature, different RH conditions, 5-7 days. The data set is classed as physicochemical.
A short description of data set [5]: Variable temperature XRPD (thermal stability of the solid form). It is filed as physicochemical. The conditions noted are these: heating, XRPD as a function of temperature. The procedure:
Heating the product of Example 1 leads to loss in structure (diffracted peaks start to disappear in the 100-160° C. range) and the solid-state form becomes amorphous.
At temperatures ≧80° C., there is substantial loss of crystallinity. In both samples, they appear to be X-ray amorphous at 90° C. and above (due to melting of the lattice solvent and dissolution of the solid phase in it as confirmed by hot stage microscopy).

Data set [6] is described as follows: Hygroscopicity / water sorption analysis. It is filed as physicochemical. The conditions noted are these: continuous water sorption profile at 25° C. from 0-90% RH.

These results are taken from patent publication US9505725B2, “Crystalline and mesomorphous forms of an AKT inhibiting pyrimidinyl-cyclopentane compound, compositions and methods thereof” (priority 2012, dated 2016).

Read-outs that look alike come from different tables or passages of the source.

Consider `CC(C)NC[C@@H](C(=O)N1CCN(c2ncnc3c2[C@H](C)C[C@H]3O)CC1)c1ccc(Cl)cc1` [GDC-0068, (S)-2-(4-chlorophenyl)-1-(4-((5R,7R)-7-hydroxy-5-methyl-6,7-dihydro-5H-cyclopenta[d]pyrimidin-4-yl)piperazin-1-yl)-3-(isopropylamino)propan-1-one], for which the critical micelle concentration in data set [1] is reported as 0.945 g/g. For the same compound, the hygroscopicity entry in data set [2] is “hygroscopic”.
As usually defined, the solubility is the concentration that dissolves in the medium under given conditions. Consider `CC(C)NC[C@@H](C(=O)N1CCN(c2ncnc3c2[C@H](C)C[C@H]3O)CC1)c1ccc(Cl)cc1.Cl` [compound of formula I, (S)-2-(4-chlorophenyl)-1-(4-((5R,7R)-7-hydroxy-5-methyl-6,7-dihydro-5H-cyclopenta[d]pyrimidin-4-yl)piperazin-1-yl)-3-(isopropylamino)propan-1-one monohydrochloride], for which the solubility is below 20 mg/mL in data set [3] (antisolvents (organic liquids), pentane, hexane, cyclohexane, heptane, ethyl acetate, iso-propyl acetate, MTBE, methyl iso-butyl ketone, read-out: solubility in antisolvents); above 20 mg/mL in data set [3] (solvents (water and organic liquids), water, methanol, ethanol, isopropanol, 2-butanol, t-butanol, 2-methoxy ethanol, THF, 2-methyltetrahydrofuran, toluene, chloroform, dichloromethane, 1,2-dichloroethane, acetone, read-out: solubility in solvents).
For the compound `CC(C)NC[C@@H](C(=O)N1CCN(c2ncnc3c2[C@H](C)C[C@H]3O)CC1)c1ccc(Cl)cc1.Cl` [Example 1, (S)-2-(4-chlorophenyl)-1-(4-((5R,7R)-7-hydroxy-5-methyl-6,7-dihydro-5H-cyclopenta[d]pyrimidin-4-yl)piperazin-1-yl)-3-(isopropylamino)propan-1-one monohydrochloride], the “effect of water vapor exposure on crystallinity” value in data set [4] is on record as “loses crystallinity”. Further, the “temperature range in which diffracted peaks start to disappear (loss in structure, becomes amorphous)” value in data set [5] is 100-160 °C. The deliquescence point in data set [6] is listed as around 75 % RH.
